In patent US20230181554A1, “AGENT FOR PROTECTING AND/OR REGENERATING NEUROMUSCULAR JUNCTION” (ONO PHARMACEUTICAL CO., LTD., priority 2020, published 2023):

What was measured:
[1] = system: co-culture of mouse myoblast cell line C2C12 cells into which human mutant SOD1 (G93A) was introduced and mouse primary cultured motor neurons; test: Neuromuscular junction formation in co-culture, α-bungarotoxin-positive area; format: cell-based; settings: for concentration from which the positive area of the neuromuscular junction was significantly increased: α-bungarotoxin-positive area on day 11 after treatment, versus control (Dunnett's test); for positive area of the neuromuscular junction: day 11
[2] = system: mouse myoblast cell line C2C12 cells into which human mutant SOD1 (G93A) was introduced; test: FF-MAS and 14-dehydrozymosterol accumulation action in myotube-like differentiated C2C12 cells (LC/APCI-MS/MS); format: cell-based; settings: for intracellular FF-MAS concentration: cells recovered at 3 and 24 hours after treatment, DMSO treatment group below the detection limit; for concentration of 14-dehydrozymosterol: same treatment as for FF-MAS, cells recovered at 3 and 24 hours
Protocol: After mouse myoblast cell line C2C12 cells into which human mutant SOD1 (G93A) was introduced were myotube-like differentiated, the cells were treated with sterol C14-reductase inhibitors (TM7SF2 inhibitors) (amorolfine, ziprasidone, and ifenprodil), and the fluctuation of sterol in the cells was evaluated. In other words, in order to differentiate C2C12 cells into myotubes, C2C12 cells that had been cultured using 15% FBS-DMEM (Dulbecco's modified Eagle's medium containing 15% fetal bovine serum and 100 units/mL penicillin-100 μg/mL streptomycin) were cultured for 2 days in a culture flask after the medium was replaced with a low-serum medium (Dulbecco's modified Eagle's medium containing 0.5% FBS, 1% insulin-transferrin-selenium, and 100 units/mL penicillin-100 μg/mL streptomycin). Then, in order to remove proliferating undifferentiated cells, the medium was replaced with a low-serum medium containing 10 μmol/L arabinocytidine (AraC), and the cells were further cultured for 2 days. The myotube-like differentiated C2C12 cells were detached from the culture flask by treatment with 0.25% trypsin-1 mmol/L EDTA, and then the cells were seeded on a 3.5-cm culture dish coated with Matrigel at 2.4×10^5 cells/dish, and cultured for 3 days. After treatment with a sterol C14-reductase inhibitor (TM7SF2 inhibitor) or 0.03% DMSO, the cells were recovered at 3 and 24 hours. After removing the medium and washing with phosphate buffered saline (PBS), the cells were recovered with 200 µL of 90% methanol containing 1 μmol/L d7-cholesterol (internal standard substance), and further recovered again with 200 μL of a 90% methanol solution, so that a total of about 400 μL of a cell recovery solution was obtained. Then, 160 μL of this cell recovery solution was pretreated by a solid-phase extraction method using OASIS PRiME HLB glution Plate, and a sample eluted with methanol/IPA (1 : 1) was measured by high-performance liquid chromatography/atmospheric pressure chemical ionization-tandem mass spectrometry (LC/APCI-MS/MS), and each concentration in the recovery solution was calculated by an internal standard calibration curve method.

[3] = system: myasthenia gravis model rat; test: Rat myasthenia gravis model (mAb35 induced), grip strength; format: in vivo; settings: grip strength at 96 hours after induction by mAb35; repeated oral administration once a day; versus control (Dunnett's test)
Protocol: The efficacy of ifenprodil, which is a sterol C14-reductase inhibitor (TM7SF2 inhibitor), in a rat myasthenia gravis model was evaluated. The rat myasthenia gravis model is a model in which a neuromuscular junction (NMJ) is impaired and motor functions such as grip strength are declined by treating a rat with mAb35, which is an antibody against an anti-acetylcholine receptor. First, an anti-acetylcholine receptor antibody mAb35 (Bio X Cell, product number BE0123) as an inducing agent was intraperitoneally administered to a 5-week-old female LEW/CrlCrlj rat at a concentration of 0.29 mg/mL and a volume of 5 mL/kg to induce a pathological condition. Ifenprodil (MedChemExpress, product number HY-12882A) as a test substance was dissolved in water for injection (Otsuka Pharmaceutical Factory, Inc.) containing 2% DMSO so that the concentration is 0.1, 0.3, and 1 mg/mL to prepare an administration solution. Ifenprodil was repeatedly orally administered once a day at doses of […] from 9 hours after induction by administration of mAb35 to 4 days after induction as the evaluation end date. […] The grip strength was measured on the day before induction (pre-value). […] For quantitative evaluation of the grip strength, a grip strength measuring device Traction Meter (BrainScience idea Co., Ltd.) was used.

[4] = system: mouse primary cultured motor neurons; test: Neurite outgrowth action in mono-culture of motor neurons; format: cell-based; settings: total protrusion length on day 4 after treatment, versus control (Dunnett's test)
Protocol: In a mono-culture system of mouse primary cultured motor neurons, the neurite outgrowth action of a sterol C14-reductase inhibitor (TM7SF2 inhibitor) and FF-MAS was evaluated. The mouse primary cultured motor neurons were prepared from an embryonic day 13 mouse fetus. In other words, a mouse on day 13 of gestation was subjected to cervical dislocation and euthanized, and the abdomen was incised to extract the fetus. The fetus was decapitated, and then the spinal cord was extracted under a stereomicroscope. The spinal cord was treated with HBSS containing 0.25% trypsin at 37° C. for 15 minutes, then the supernatant was removed, washing was performed 3 times with HBSS, 2 mL of a dispersion solution was added, and pipetting was repeated with a tapered Pasteur pipette to prepare a cell suspension. The cell suspension was centrifuged (200 g, 5 minutes), 2 mL of a motor neuron medium was added to the sediment, the suspension was resuspended, and the number of cells was measured. The mouse primary cultured motor neurons suspended in the motor neuron medium were seeded on a 96-well imaging plate coated with poly-D-lysine at 1.5×10^4 cells/100 μL/well. […] The neurite length was evaluated by immunostaining the nuclei and protrusions of nerve cells. […] As primary antibodies, Anti-Neuron-specific beta-III Tubulin Antibody (R&D Systems, Inc., MAB1195, 1/1,000 dilution) and Anti-NeuN Antibody (Merck Millipore, ABN78, 1/500 dilution) diluted with a blocking solution were added in an amount of 50 and the plate was allowed to stand at 4° C. overnight. After washing 3 times with 100 to 150 μL/well of PBS, 50 μL/well of Alexa Fluor 647 goat anti-mouse IgG (H+L) (Invitrogen, A-21236, 1/1,000 dilution) and Alexa Fluor 488 goat anti-rabbit IgG (H+L) (Invitrogen, A-11034, 1/1,000 dilution) as secondary antibodies were added, and the plate was allowed to stand at room temperature for 1 hour while being shielded from light, and then washed 3 times with 100 to 150 μL/well of PBS. The stained plate was photographed using the Opera Phenix high-throughput high-content imaging system ([…] Japan). Images of 5 fields per well were acquired using an Alexa Fluor 647 wavelength filter for photographing neurites and an Alexa Fluor 488 wavelength filter for photographing nuclei of nerve cells, nuclei of nerve cells and neurites per field were analyzed by an analysis program, and the sum of neurite lengths per field was calculated. Taking the mean of the sum of neurite lengths in the vehicle group (0.03% DMSO or 0.2% ethanol) evaluated for each plate as 100%, the sum of neurite lengths in the sterol C14-reductase inhibitor (TM7SF2 inhibitor) and FF-MAS treatment groups was calculated.

[5] = system: C2C12 cells in which both human mutant SOD1 (G93A) and a human TM7SF2 gene were overexpressed and mouse primary motor neurons; test: Neuromuscular junction formation in co-culture, C2C12 overexpressing human mutant SOD1 (G93A) and human TM7SF2; format: cell-based; settings: same concentration range (0.1, 0.3, 1, and 3 μmol/L), day 11
[6] = system: C2C12 cells in which human mutant SOD1 (G93A) was overexpressed alone and mouse primary motor neurons; test: Neuromuscular junction formation in co-culture, C2C12 overexpressing human mutant SOD1 (G93A) alone; format: cell-based; settings: day 11
[7] = system: rat primary Schwann cells; test: Schwann cell differentiation-promoting action (MAG expression); format: cell-based; settings: day 3 after treatment, versus control (Dunnett's test)
Protocol: The Schwann cell differentiation-promoting action of FF-MAS was evaluated in a culture system of rat primary Schwann cells. In other words, neonatal rats aged 0 to 2 days after birth were decapitated, then sterilized by being immersed in ethanol for disinfection, moved to a clean bench, and then washed with a recovery medium (Dulbecco's modified Eagle medium (Sigma Aldrich, product number D5921) without phenol red containing 1 vol % Antibiotic-Antimycotic (Antibiotic-Antimycotic 100×, Thermo Fisher Scientific, Inc., product number 15240062)). Thereafter, the dorsal root ganglion was extracted under a microscope and recovered in a 15 mL tube filled with the recovery medium. The recovered tube was centrifuged at 400 g for 3 minutes at room temperature, and the supernatant was removed. […] The number of cells in the filtered cell suspension was counted and adjusted to 2.0×10^5 cells/mL, and then the cells were seeded on a 96-well plate coated with poly-D-lysine at 100 μL/well each, and statically cultured in a CO2 incubator under conditions of 5% CO2, 95% air, and 37° C. […] The Schwann cell differentiation-promoting action was evaluated on the basis of the expression level of myelin-associated glycoprotein (hereinafter referred to as MAG). […]

Compound	concentration from which the positive area of the neuromuscular junction was significantly increased [1]	intracellular FF-MAS concentration [2]	concentration of 14-dehydrozymosterol [2]	concentration from which the sum of neurite lengths was significantly increased [4]	also measured
CC(C)=CCC[C@@H](C)[C@H]1CC=C2C3=C(CC[C@@]21C)[C@@]1(C)CC[C@H](O)C[C@@H]1CC3 [14-dehydrozymosterol, 5alpha-cholesta-8,14,24-trien-3beta-ol]	10 µmol/L	–	–	–	–
CC(C(O)c1ccc(O)cc1)N1CCC(Cc2ccccc2)CC1 (stereo not shown) [ifenprodil]	1 µmol/L	increase	increase	1 µmol/L	dose from which the grip strength was significantly improved [3]: 3 mg/kg
O=C1Cc2cc(CCN3CCN(c4nsc5ccccc45)CC3)c(Cl)cc2N1 [ziprasidone]	3 µmol/L	increase	increase	1 µmol/L	–
CCC(C)(C)c1ccc(CC(C)CN2C[C@@H](C)O[C@@H](C)C2)cc1 (stereo partly shown) [amorolfine]	0.3 µmol/L	increase	increase	0.3 µmol/L	positive area of the neuromuscular junction [5]: no increasing fluctuation; positive area of the neuromuscular junction ([6]; at 1 μmol/L): significantly increased; positive area of the neuromuscular junction ([6]; at 3 mol/L): significantly increased
COc1ccc(S(=O)(=O)N2CCC(N3CCC(C)CC3)CC2)cc1 [TASIN-1]	–	–	–	–	positive area of the neuromuscular junction [1]: no significant increase
CC(C)=CCC[C@@H](C)[C@H]1CC=C2C3=C(CC[C@@]21C)[C@@]1(C)CC[C@H](O)C(C)(C)[C@@H]1CC3 [FF-MAS, 4,4-dimethyl-5alpha-cholesta-8,14,24-trien-3beta-ol]	10 µmol/L	–	–	1.1 µmol/L	concentration from which the value of MAG/number of cell nuclei was significantly increased [7]: 3 µmol/L
CC(C)=CCC[C@@H](C)[C@H]1CC[C@H]2C3=C(CC[C@]12C)[C@@]1(C)CC[C@H](O)C[C@@H]1CC3 [zymosterol]	–	–	–	–	positive area of the neuromuscular junction ([1]; added at 0.05 to 10 μmol/L): no significant increase
